Experimental data taken from patent US20250268815A1, “TRANSDERMAL DELIVERY SYSTEMS FOR ADMINISTRATION OF HYDROPHILIC MOLECULES AND METHODS OF MAKING AND USING SAME” (STATE OF ISRAEL, MINISTRY OF AGRICULTURE & RURAL …, priority 2021, published 2025).

What was measured:
[1] = tested on: skin
[2] = tested on: Human skin (full thickness)
Description: Transdermal insulin delivery was assessed by the Franz cell apparatus (PermeGear, PA, USA). Human skin (full thickness) was obtained from Zen-bio (NC, US). A mechanical skin press apparatus was used to section the skin and it was kept at −20° C. until it was used. On the day of experiment, the skin samples were pre-equilibrated with the PBS for 1 h prior to use, with the dermal side submerged in the buffer. Then, the skin samples were clamped between the donor and receptor chambers, with the epidermal side facing the donor compartment. […] The sunflower oil containing insulin without biopolymer was used as a control treatment. The receptor chamber was filled with 5 ml of PBS containing sodium azide (to prevent microbial growth) and kept at 32±0.5° C. under constant stirring (500 rpm). Samples (200 μL each) were taken at the indicated time points and an equal volume of the buffer was added immediately. The amount of insulin permeation was quantified by ELISA, using a designated standard curve [Mercodia]. All of the samples were tested in three repetitions.

Molecule | trans-epidermal water loss (TEWL), Baseline ([1]; before application, 5 hr exposure experiment) [g/m^2/hr] | increase of water loss (TEWL) ([1]; positive control, same experimental settings) [fold] | insulin permeation across human skin ex vivo [2]
CCCCCCCCCCCCOS(=O)(=O)[O-].[Na+] [SDS, sodium dodecyl sulfate] | 10.0 ± 2.4 | ~3 | –
Sodium carboxymethyl cellulose [CMC] | – | – | did not enhance insulin permeation
